Values quoted from earlier work, collected in US11096902B1, “Transdermal film formulations and methods of use” (King Abdulaziz University, priority 2021, dated 2021).

Settings: oral, with food

SMILES: CC(C)c1c(C(=O)Nc2ccccc2)c(-c2ccccc2)c(-c2ccc(F)cc2)n1CC[C@@H](O)C[C@@H](O)CC(=O)[O-].CC(C)c1c(C(=O)Nc2ccccc2)c(-c2ccccc2)c(-c2ccc(F)cc2)n1CC[C@@H](O)C[C@@H](O)CC(=O)[O-].[Ca+2] [ATC, Atorvastatin calcium]
- reduction of systemic availability by concomitant intake of food: 25%
